According to paper PMC4774911, “Biochemical Screening of Five Protein Kinases from Plasmodium falciparum against 14,000 Cell-Active Compounds” (PLoS ONE, 2016):
Where “and” joins values, the source holds several entries; their conditions need not be identical. Equal values may be shown once.

How the values were obtained:
Test in all cases: biochemical
AAK1 = AAK1 (Homo sapiens, UniProt Q2M2I8)
EPHB4 = target: T1, EPHB4 (Homo sapiens, UniProt P54760)
T1 sequence (P54760 1-987): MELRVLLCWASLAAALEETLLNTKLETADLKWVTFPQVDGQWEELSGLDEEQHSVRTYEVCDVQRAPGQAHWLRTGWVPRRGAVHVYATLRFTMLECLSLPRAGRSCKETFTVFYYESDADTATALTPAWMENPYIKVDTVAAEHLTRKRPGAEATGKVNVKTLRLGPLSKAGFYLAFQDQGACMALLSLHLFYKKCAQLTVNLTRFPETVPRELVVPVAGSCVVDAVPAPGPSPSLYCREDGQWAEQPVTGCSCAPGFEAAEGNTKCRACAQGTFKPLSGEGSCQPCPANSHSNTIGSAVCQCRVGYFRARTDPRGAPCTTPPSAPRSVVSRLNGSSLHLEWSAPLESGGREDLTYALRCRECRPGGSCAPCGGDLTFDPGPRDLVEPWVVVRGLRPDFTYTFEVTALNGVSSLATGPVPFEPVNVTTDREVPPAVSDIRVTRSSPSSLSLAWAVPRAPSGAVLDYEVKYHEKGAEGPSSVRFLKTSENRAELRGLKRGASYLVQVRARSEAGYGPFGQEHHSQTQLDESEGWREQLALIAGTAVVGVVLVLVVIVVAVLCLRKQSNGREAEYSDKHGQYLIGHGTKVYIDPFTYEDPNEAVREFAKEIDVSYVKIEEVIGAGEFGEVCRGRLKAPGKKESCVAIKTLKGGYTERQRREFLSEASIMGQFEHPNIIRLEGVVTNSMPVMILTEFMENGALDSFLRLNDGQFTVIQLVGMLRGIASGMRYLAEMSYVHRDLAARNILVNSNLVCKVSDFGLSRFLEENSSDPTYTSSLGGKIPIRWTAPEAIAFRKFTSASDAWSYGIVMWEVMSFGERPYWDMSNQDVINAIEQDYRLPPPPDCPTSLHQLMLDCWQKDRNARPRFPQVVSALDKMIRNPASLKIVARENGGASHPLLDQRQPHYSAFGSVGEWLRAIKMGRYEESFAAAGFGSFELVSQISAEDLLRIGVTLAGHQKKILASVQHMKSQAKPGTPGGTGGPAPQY

KIAA0999 = KIAA0999 (Homo sapiens, UniProt Q9Y2K2)
KIAA0999, sequence (Q9Y2K2 whole entry): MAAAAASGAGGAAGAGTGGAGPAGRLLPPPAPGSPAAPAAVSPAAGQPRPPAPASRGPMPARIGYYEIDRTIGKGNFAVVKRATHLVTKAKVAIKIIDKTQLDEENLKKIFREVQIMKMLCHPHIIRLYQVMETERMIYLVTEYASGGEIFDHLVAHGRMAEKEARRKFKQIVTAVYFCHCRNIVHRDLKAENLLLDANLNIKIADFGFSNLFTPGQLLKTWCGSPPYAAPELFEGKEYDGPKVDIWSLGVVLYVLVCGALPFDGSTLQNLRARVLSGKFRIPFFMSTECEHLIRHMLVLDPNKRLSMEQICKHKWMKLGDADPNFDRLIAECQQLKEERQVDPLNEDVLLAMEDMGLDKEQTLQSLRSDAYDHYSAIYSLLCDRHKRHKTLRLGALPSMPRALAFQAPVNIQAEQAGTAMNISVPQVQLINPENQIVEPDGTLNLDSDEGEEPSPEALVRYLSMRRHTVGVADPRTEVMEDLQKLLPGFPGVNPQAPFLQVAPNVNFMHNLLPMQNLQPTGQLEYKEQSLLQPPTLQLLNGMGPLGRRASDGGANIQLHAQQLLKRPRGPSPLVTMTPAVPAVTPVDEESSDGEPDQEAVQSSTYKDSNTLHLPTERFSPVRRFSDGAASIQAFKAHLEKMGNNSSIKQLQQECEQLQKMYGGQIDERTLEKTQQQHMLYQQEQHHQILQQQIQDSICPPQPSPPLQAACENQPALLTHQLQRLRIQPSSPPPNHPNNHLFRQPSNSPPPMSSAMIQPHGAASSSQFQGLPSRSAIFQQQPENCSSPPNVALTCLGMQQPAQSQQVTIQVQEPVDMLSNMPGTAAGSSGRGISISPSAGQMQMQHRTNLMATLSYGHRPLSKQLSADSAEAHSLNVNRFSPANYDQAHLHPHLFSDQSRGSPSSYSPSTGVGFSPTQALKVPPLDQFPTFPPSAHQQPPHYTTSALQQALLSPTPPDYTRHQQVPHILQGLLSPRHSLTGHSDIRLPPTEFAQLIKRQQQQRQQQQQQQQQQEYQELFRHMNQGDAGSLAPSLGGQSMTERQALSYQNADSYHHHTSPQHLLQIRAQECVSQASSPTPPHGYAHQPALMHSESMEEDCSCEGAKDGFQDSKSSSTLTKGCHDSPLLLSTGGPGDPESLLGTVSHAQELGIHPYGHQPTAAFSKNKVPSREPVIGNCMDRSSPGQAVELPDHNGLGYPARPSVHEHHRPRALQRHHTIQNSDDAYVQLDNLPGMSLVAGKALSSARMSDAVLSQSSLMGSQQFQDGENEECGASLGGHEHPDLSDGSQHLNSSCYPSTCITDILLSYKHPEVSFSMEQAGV

MAP2K4 = target: T2, MAP2K4 (Homo sapiens, UniProt P45985)
T2 sequence (P45985 1-399): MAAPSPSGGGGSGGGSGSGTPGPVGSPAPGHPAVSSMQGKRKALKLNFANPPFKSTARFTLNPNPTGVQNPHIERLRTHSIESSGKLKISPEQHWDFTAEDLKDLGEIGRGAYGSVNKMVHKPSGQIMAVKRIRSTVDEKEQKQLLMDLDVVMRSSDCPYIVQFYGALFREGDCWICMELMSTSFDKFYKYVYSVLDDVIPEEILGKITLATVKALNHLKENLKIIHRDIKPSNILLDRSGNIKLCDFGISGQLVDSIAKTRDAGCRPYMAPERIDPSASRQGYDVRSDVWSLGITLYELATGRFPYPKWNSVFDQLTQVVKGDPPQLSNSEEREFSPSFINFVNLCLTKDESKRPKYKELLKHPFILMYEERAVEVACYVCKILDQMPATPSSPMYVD

PCTK2 = PCTK2 (Homo sapiens, UniProt Q00537)
PCTK2, sequence (Q00537 whole entry): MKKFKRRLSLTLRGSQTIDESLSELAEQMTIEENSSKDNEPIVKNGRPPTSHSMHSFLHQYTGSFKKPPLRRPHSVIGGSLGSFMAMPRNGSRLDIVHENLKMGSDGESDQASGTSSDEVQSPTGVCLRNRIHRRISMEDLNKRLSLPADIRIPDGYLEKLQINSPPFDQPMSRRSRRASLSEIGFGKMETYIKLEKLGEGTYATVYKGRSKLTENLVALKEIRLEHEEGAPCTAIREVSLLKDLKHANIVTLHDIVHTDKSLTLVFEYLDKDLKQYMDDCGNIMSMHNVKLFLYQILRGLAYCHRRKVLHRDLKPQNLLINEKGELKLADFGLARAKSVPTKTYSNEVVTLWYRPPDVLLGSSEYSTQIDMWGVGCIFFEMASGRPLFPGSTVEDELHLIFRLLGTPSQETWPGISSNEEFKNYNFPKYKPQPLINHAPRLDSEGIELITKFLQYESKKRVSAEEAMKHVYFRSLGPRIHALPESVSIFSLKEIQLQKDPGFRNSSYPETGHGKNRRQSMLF

PIM1 = PIM1 (Homo sapiens, UniProt P11309)
PIM1, sequence (P11309 whole entry): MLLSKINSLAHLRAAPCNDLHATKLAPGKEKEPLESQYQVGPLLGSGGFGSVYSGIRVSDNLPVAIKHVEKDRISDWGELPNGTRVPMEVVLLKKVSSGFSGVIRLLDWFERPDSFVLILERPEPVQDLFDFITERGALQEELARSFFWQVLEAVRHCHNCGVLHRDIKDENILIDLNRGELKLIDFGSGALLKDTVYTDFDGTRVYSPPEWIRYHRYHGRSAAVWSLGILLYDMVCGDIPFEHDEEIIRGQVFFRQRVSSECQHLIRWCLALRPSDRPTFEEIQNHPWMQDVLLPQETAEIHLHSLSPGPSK

PLK4 = target: T3, PLK4 (Homo sapiens, UniProt O00444)
T3 sequence (O00444 1-970): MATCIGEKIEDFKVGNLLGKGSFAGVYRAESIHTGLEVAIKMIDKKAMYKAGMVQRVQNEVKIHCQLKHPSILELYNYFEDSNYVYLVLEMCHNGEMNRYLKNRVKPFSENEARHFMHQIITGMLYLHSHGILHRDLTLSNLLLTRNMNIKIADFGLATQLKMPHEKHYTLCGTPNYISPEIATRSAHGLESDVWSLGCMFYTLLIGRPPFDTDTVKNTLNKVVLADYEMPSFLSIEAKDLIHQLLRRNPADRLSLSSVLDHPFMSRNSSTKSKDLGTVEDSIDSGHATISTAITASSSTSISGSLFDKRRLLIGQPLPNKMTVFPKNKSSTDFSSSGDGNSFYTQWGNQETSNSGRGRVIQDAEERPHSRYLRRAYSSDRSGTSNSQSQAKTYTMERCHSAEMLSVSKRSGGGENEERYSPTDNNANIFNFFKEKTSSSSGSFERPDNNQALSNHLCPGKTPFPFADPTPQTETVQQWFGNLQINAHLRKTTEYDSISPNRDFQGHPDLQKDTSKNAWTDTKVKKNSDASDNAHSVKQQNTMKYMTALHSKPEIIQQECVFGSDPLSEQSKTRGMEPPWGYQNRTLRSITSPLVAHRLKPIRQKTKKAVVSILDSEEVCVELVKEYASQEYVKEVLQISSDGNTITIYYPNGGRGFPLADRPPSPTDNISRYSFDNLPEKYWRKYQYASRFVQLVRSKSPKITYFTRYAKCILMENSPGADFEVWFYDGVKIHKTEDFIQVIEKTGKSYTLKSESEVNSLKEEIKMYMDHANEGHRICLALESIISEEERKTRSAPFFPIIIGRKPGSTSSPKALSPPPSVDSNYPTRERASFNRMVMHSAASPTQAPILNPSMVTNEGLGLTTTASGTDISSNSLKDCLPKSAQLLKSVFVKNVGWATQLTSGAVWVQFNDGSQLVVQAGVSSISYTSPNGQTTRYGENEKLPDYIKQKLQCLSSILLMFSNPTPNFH

RPS6KA5 = RPS6KA5 (Homo sapiens, UniProt O75582)
RPS6KA5, sequence (O75582 whole entry): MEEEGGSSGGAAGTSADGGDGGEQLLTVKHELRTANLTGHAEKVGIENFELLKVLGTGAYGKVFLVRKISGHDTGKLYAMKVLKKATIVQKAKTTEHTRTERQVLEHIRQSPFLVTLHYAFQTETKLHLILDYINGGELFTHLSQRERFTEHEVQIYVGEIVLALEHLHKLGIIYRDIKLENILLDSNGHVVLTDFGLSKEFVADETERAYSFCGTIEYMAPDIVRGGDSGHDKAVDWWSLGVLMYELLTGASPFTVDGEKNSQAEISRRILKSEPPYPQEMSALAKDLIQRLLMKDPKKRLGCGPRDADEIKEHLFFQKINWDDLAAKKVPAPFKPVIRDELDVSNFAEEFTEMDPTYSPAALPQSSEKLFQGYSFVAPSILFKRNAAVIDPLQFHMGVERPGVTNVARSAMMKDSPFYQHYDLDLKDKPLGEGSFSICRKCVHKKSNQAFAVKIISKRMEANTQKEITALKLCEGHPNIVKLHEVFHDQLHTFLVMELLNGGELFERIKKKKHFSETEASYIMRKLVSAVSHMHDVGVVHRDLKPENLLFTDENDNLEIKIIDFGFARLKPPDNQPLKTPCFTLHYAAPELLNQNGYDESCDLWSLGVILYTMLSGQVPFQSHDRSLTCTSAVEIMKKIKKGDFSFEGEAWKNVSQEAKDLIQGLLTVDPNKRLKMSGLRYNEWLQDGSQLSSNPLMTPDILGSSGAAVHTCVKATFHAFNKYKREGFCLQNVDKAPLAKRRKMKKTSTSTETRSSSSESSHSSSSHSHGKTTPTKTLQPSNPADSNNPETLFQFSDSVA

STK39 = STK39 (Homo sapiens, UniProt Q9UEW8)

AAK1, sequence (Q2M2I8 whole entry): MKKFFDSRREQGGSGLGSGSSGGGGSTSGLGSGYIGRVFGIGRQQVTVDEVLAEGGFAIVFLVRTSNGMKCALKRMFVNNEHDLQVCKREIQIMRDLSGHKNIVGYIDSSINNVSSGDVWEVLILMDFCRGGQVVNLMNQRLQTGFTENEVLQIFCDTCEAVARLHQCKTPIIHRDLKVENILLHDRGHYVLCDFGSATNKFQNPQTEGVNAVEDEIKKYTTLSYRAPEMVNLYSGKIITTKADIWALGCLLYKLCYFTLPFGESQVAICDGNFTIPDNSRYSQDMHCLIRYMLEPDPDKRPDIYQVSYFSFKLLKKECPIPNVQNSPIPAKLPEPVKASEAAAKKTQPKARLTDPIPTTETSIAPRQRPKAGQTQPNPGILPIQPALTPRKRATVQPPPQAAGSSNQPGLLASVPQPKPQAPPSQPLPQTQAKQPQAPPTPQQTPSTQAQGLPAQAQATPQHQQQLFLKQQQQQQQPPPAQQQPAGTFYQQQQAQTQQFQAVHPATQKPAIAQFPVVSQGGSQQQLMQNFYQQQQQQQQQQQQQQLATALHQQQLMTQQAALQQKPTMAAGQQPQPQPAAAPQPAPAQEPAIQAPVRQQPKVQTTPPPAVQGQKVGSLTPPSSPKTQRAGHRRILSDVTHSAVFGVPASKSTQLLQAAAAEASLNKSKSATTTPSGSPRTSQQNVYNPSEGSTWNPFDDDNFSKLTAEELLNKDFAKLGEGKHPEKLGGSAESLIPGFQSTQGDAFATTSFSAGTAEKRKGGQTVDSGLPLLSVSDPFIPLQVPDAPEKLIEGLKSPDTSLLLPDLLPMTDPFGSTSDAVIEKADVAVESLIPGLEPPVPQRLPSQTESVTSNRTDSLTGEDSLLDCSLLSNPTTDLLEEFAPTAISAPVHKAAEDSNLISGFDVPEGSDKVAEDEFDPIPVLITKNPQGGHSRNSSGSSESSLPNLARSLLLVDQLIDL

SMILES | IC50 (AAK1) [µM] | IC50 (EPHB4) [µM] | IC50 (KIAA0999) | IC50 (MAP2K4) [µM] | IC50 (PCTK2) | IC50 (PIM1) | IC50 (PLK4) | IC50 (RPS6KA5) | IC50 (STK39) [µM]
CN(C)CC(O)COc1ccc(Nc2ncc([N+](=O)[O-])c(Nc3ccccc3O)n2)cc1.O=C(O)C(F)(F)F (stereo not drawn) [TCMDC-141399] | > 20 | > 20 | > 20 µM | > 20 | 1.5 µM and 1.4 µM | > 20 µM | > 20 µM | > 20 µM | 5.5
Cl.NCC1(c2nc(-c3ccc(Cl)c(O)c3)c(-c3ccncc3)[nH]2)CCCCC1 [TCMDC-141154] | > 20 | 5.3 | 0.066 µM and 0.051 µM | > 20 | > 20 µM | > 20 µM | > 20 µM | > 20 µM | > 20
CN1CCN(c2ccc(Nc3ncc(C#N)c(Nc4ccccc4C(N)=O)n3)cc2)CC1.Cl [TCMDC-134116] | 0.19 | 4.3 | 0.35 µM and 0.25 µM | > 20 | 0.076 µM and 0.11 µM | 7.2 µM and 6 µM | 0.21 µM and 0.27 µM | 0.5 µM and 0.75 µM | 0.067
